# Measured values from ChEMBL document CHEMBL3351663, “Discovery of acylurea isosteres of 2-acylaminothiadiazole in the azaxanthene series of glucocorticoid receptor agonists” (Bioorg Med Chem Lett, 2014).
# Columns and labels:
# Glucocorticoid receptor [1] = target: T1, Glucocorticoid receptor (Homo sapiens, UniProt P04150); assay: Agonist activity at glucocorticoid receptor in human HeLa cells assessed as NP-1 transactivation by luciferase reporter gene assay; assay type: cell-based
# T1 sequence (P04150 whole entry): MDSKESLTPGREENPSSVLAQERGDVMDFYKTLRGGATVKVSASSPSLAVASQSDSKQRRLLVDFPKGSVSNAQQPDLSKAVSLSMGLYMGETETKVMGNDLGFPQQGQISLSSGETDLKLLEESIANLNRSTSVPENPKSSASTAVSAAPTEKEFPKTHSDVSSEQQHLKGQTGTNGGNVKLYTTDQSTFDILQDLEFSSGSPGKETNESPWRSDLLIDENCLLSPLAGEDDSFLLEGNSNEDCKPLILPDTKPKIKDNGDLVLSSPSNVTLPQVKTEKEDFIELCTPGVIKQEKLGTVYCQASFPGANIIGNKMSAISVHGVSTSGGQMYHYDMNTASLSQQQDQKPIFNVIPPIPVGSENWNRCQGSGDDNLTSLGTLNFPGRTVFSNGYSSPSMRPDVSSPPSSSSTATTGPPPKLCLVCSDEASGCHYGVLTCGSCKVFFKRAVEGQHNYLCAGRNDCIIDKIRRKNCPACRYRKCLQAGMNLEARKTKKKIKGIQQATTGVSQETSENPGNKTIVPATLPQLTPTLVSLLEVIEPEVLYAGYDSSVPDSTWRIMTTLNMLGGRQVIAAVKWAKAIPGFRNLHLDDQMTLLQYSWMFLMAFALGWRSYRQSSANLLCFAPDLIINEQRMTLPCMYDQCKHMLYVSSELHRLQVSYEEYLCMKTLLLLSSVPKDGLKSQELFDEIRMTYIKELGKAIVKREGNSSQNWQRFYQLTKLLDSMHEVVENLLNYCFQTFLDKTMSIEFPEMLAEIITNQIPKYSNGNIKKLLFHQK
# [2] = Half life in human liver microsomes
# Cytochrome P450 2C9 = Cytochrome P450 2C9 (Homo sapiens, UniProt P11712); assay: Inhibition of CYP2C9 (unknown origin); assay type: ADME
# Glucocorticoid receptor [3] = target: T1, Glucocorticoid receptor; assay: Binding affinity to glucocorticoid receptor (unknown origin) by fluorescence polarization assay
# Progesterone receptor = target: T2, Progesterone receptor (Homo sapiens, UniProt P06401); assay: Binding affinity to progesterone receptor (unknown origin) by fluorescence polarization assay
# T2 sequence (P06401 whole entry): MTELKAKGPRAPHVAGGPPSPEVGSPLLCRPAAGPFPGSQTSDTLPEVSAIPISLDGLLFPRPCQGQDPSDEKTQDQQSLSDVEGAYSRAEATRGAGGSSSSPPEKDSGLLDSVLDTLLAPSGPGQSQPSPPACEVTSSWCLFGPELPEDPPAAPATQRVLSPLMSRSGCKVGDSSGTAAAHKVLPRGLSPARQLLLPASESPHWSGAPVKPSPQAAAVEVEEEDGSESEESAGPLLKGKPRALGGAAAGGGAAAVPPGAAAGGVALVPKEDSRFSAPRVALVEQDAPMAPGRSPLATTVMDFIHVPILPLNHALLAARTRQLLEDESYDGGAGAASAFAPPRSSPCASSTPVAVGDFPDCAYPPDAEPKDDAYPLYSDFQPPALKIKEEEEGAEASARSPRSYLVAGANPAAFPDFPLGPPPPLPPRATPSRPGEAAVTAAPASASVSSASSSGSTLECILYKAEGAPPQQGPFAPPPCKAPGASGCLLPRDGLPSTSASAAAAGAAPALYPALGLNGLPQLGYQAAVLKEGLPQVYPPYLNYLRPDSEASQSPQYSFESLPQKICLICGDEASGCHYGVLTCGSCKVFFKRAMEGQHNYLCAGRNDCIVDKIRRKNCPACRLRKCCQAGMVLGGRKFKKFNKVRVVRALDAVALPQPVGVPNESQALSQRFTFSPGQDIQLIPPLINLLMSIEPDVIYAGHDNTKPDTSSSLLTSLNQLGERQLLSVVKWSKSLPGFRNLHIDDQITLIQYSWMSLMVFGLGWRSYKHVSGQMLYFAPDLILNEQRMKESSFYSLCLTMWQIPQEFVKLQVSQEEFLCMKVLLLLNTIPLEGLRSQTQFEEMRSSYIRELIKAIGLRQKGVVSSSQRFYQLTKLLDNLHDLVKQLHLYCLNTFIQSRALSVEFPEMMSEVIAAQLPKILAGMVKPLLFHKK
# Cytochrome P450 2C8 = target: T3, Cytochrome P450 2C8 (Homo sapiens, UniProt P10632); assay: Inhibition of CYP2C8 (unknown origin); assay type: ADME
# T3 sequence (P10632 whole entry): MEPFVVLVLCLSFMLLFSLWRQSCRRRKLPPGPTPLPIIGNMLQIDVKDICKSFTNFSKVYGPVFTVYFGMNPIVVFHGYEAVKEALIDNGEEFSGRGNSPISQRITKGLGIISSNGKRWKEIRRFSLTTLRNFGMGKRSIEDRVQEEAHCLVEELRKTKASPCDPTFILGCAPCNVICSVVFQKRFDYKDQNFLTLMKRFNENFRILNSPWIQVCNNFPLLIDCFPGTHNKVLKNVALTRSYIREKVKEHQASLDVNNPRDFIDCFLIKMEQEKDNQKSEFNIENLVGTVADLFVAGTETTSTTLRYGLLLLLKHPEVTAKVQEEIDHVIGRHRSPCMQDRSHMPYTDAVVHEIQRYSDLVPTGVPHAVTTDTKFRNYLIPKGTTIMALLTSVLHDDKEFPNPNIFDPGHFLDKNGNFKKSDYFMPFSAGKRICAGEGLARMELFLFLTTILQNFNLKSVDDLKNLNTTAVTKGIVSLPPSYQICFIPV
# Sequence of Cytochrome P450 2C9 (P11712 whole entry): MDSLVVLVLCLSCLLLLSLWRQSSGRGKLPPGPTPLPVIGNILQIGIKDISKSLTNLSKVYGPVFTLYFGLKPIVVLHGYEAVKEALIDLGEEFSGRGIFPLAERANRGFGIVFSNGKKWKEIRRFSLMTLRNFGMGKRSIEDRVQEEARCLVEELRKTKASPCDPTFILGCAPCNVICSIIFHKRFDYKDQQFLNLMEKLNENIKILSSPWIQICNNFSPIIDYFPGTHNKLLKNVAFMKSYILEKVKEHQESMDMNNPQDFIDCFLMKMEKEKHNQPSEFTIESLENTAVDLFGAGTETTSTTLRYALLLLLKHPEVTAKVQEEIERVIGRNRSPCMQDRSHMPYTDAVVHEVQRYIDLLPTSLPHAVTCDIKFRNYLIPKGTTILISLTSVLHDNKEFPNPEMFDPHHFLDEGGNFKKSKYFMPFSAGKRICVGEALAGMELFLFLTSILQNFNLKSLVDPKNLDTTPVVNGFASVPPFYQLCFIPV
EC50 (Glucocorticoid receptor [1]),half-life ([2]; microsomes),IC50 (Cytochrome P450 2C9),Ki (Glucocorticoid receptor [3]),Ki (Progesterone receptor),IC50 (Cytochrome P450 2C8),half-life ([2]; liver microsomes),Compound
5.5 nM,41 min,14000 nM,2.1 nM,52.8 nM,8900 nM,,CC(C)(C(=O)NC(N)=O)[C@@H]1c2ccc(-c3ccc(C(=O)N4CCOCC4)cc3)nc2Oc2c(F)cccc21
10.8 nM,,1000 nM,1.6 nM,44.9 nM,3700 nM,9.1 min,CC(C)(C(=O)Nc1nncs1)[C@@H]1c2ccc(-c3ccc(C(=O)N4CCOCC4)cc3)nc2Oc2c(F)cccc21
